No end group written: not given here.
What was measured:
[1] = cited from earlier work; for Solubility in 1x DPBS, estimated maximum concentration tested or achieved: pH 7.1
Procedure: Ciprofloxacin (CIP; Sigma-Aldrich, St. Louis, MO) and synthesized peptides were dissolved to prepare stock solutions. […] Solubility Test Results for Synthetic RWn Peptides. Peptide Ultrapure Waterᵃ 1x DPBS (pH 7.1 ± DMSOᵃ Formic Acid ID 0.1)ᵃ (HCOOH)ᵃ RW4 Dissolved (≤10 Dissolved (≤5 mg/mL) Dissolved (≤15 mg/mL) N/A mg/mL) RW4P Dissolved (≤2 Dissolved (≤2 mg/mL) Dissolved (≤10 mg/mL) N/A mg/mL) RW6 Dissolved (≤10 Undissolved Dissolved (≥10 mg/mL) N/A mg/mL) RW6P Dissolved (≤5 Undissolved Dissolved (≥10 mg/mL) N/A mg/mL) RW6-2P Undissolved Undissolved Dissolved (≤2 mg/mL) N/A RW8 Dissolved (≤5 Undissolved Dissolved (≤15 mg/mL) N/A mg/mL) RW8P Undissolved Undissolved Undissolved Dissolved (≤5 mg ...

[2] = tested on: human embryonic kidney (HEK293) cells (ATCC CRL-1573); parameters: method as in earlier work; settings: cited from earlier work
[3] = tested on: human umbilical vein endothelial (HUVEC) cells
[4] = tested on: human umbilical vein endothelial (HUVEC) cells; parameters: method as in earlier work; settings: cited from earlier work
[5] = tested on: human embryonic kidney (HEK293) cells (ATCC CRL-1573); assay type: cell-based; settings: 24 h
Procedure: HEK293 cells were cultured in Dulbecco's modified Eagle's medium (DMEM; Gibco, Thermo Fisher Scientific, Waltham, MA) supplemented with 10% (v/v) fetal bovine serum (FBS; Gibco) and 1% penicillin/streptomycin (Gibco) at 37 °C in a humidified atmosphere containing 5% CO2. Cells were seeded in 384-well plates at a density of 5 × 10^3 cells/well and incubated for 24 h. Compounds were then added to the wells at various concentrations. After a further 24 h incubation, resazurin (Sigma-Aldrich) was added to each well to a final concentration of 44 μM. After 4 h of incubation, fluorescence was measured at excitation/emission wavelengths of 560/590 nm using a Tecan […] microplate reader. Cell viability was expressed as a percentage relative to that of untreated control cells. […] All assays were conducted in duplicate (n = 2) across separate assay plates. […]

RWRWRWPRWRWRW-NH2 [RW6P]
Solubility in DMSO, estimated maximum concentration tested or achieved [1]: ≥ 10000 µg/mL | Solubility in ultrapure water, estimated maximum concentration tested or achieved [1]: ≤ 5000 µg/mL

RWRWRWRWPRWRWRWRW-NH2 [RW8P]
Solubility in formic acid (HCOOH), estimated maximum concentration tested or achieved [1]: ≤ 5000 µg/mL

RWRWRWRW [RW4]
concentration without detectable cytotoxicity, HEK293 [2]: > 32000 ng/mL | HUVEC (CC50) [3]: >32 µg/mL | concentration without detectable cytotoxicity, HUVEC [4]: > 32000 ng/mL | Solubility in DMSO, estimated maximum concentration tested or achieved [1]: ≤ 15000 µg/mL | Solubility in ultrapure water, estimated maximum concentration tested or achieved [1]: ≤ 10000 µg/mL | Solubility in 1x DPBS, estimated maximum concentration tested or achieved [1]: ≤ 5000 µg/mL | HEK293 (CC50) [5]: >32 µg/mL

RWRWPRWRWPRWRW-NH2 [RW6–2P]
Solubility in DMSO, estimated maximum concentration tested or achieved [1]: ≤ 2000 µg/mL

N=C(N)NCCC[C@H](NC(=O)[C@H](Cc1c[nH]c2ccccc12)NC(=O)[C@H](CCCNC(=N)N)NC(=O)[C@H](Cc1c[nH]c2ccccc12)NC(=O)[C@H](CCCNC(=N)N)NC(=O)[C@H](Cc1c[nH]c2ccccc12)NC(=O)[C@H](CCCNC(=N)N)NC(=O)[C@H](Cc1c[nH]c2ccccc12)NC(=O)[C@H](CCCNC(=N)N)NC(=O)[C@H](Cc1c[nH]c2ccccc12)NC(=O)[C@@H](N)CCCNC(=N)N)C(=O)N[C@@H](Cc1c[nH]c2ccccc12)C(=O)O [RW6]
HUVEC (CC50) [3]: >32 µg/mL | Solubility in DMSO, estimated maximum concentration tested or achieved [1]: ≥ 10000 µg/mL | Solubility in ultrapure water, estimated maximum concentration tested or achieved [1]: ≤ 10000 µg/mL | HEK293 (CC50) [5]: >32 µg/mL

RWRWRWRWRWRWRWRW [RW8, arginine-tryptophan-rich antimicrobial peptide, 16 AA]
Solubility in DMSO, estimated maximum concentration tested or achieved [1]: ≤ 15000 µg/mL | Solubility in ultrapure water, estimated maximum concentration tested or achieved [1]: ≤ 5000 µg/mL

RWRWPRWRW-NH2 [RW4P]
Solubility in DMSO, estimated maximum concentration tested or achieved [1]: ≤ 10000 µg/mL | Solubility in ultrapure water, estimated maximum concentration tested or achieved [1]: ≤ 2000 µg/mL | Solubility in 1x DPBS, estimated maximum concentration tested or achieved [1]: ≤ 2000 µg/mL

— paper PMC12368660, “Synergistic Ciprofloxacin-RWn Peptide Therapy Overcomes Drug Resistance in Gram-Negative Bacteria” (ACS Omega, 2025)
